According to patent US20080227770A1, “Benzoxazepine Compound” (Takeda Pharmaceutical Company Limited, priority 2003, published 2008):

## COc1cccc([C@H]2O[C@H](Cc3ncc(CC(=O)O)s3)C(=O)N(CC(C)(C)CO)c3ccc(Cl)cc32)c1OC [Example 1, (2-{[(3R,5S)-7-chloro-5-(2,3-dimethoxyphenyl)-1-(3-hydroxy-2,2-dimethylpropyl)-2-oxo-1,2,3,5-tetrahydro-4,1-benzoxazepin-3-yl]methyl}-1,3-thiazol-5-yl)acetic acid]
  melting point: 219 to 222 °C (dec.)
